This is an account of results in PMC6023986, “Interactions Between Emodin and Efflux Transporters on Rat Enterocyte by a Validated Ussing Chamber Technique” (Frontiers in Pharmacology, 2018).

Like-named read-outs stand apart in the source and are kept apart here.

Data set [1] concerns the target T1, MRP3 (Rattus norvegicus, UniProt O88563).
T1 construct: intestinal segments including duodenum, jejunum, ileum, and colon from anesthetized rats were immediately removed by surgery; from tissue; host or cells: stripped rat intestine (jejunum and ileum in validation; jejunum for the emodin studies)
As to the kind of experiment: Influence of emodin on MRP3 function: teniposide bidirectional transport in the presence of emodin (Ussing chamber). The format is in vitro ADME. The settings on record: rat jejunum; for Papp at 60 μM: rat. From the text:
(§1) The four intestinal segments including duodenum, jejunum, ileum, and colon from anesthetized rats were immediately removed by surgery and washed with KRB solution. Each section of the intestinal segments was then placed in cold (on ice), bubbled (O2:CO2 95:5) KRB buffer. The four intestinal segments were then cut into 2 cm pieces, respectively, and serosas were removed by blunt dissection. Peyer’s patches were excluded from the experiment by visually identified. The stripped tissues were mounted in chambers with exposed surface area of 0.49 cm^2. Temperature of the chambers was maintained at 37 ± 0.5°C. Each of the half-cells in the chambers was filled with 5 mL fresh KRB buffer (pH 6.5). Tissue viability was continuously controlled by potential difference (PD). Tissue with electrical values less than 2 mV was refused ([Moazed and Hiebert, 2007]; [Heinen et al., 2013]).
(§2) In this study, the effects of the three efflux transporters on emodin intestinal absorption were investigated. Meanwhile, the influence of emodin on intestinal P-gp, MRP2, and MRP3 functions were also discussed. Solutions with three concentrations (low, middle, and high) of emodin were filled in the mucosal or serosal compartment to measure the bidirectional transport characteristic. […] In the emodin impact experiments, digoxin, pravastatin, and teniposide were employed as P-gp, MRP2, and MRP3 substrates. Changes of the bidirectional transport characteristic were measured before and after adding emodin to the mucosal side.
(§3) Frozen samples were adequately vortexed after thawing at the room temperature; 10 μL suitable IS solution was added to 200 μL samples; 200 μL methanol was added after a thorough vortex mixing for 30 s. The mixtures were then vortexed for 30 s and centrifuged at 15,000 rpm for 30 min. Finally, 5 μL of supernatant was injected into the LC-MS/MS system.
(§4) The quantifications of the compounds were performed by the TSQ Quantum Ultra Triple Quadrupole LC-MS/MS system from Thermo Fisher Scientific. Chromatography was carried out using an Agilent Poroshell 120 SB-C18 (2.7 μm, 2.1 mm × 100 mm) column with a Phenomenex AFO-8497 C18 pre-column, operating at 30°C. Adaptive gradient elution methods were applied for the analytes. The flow rate of the mobile phase was kept at 0.2 mL min^-1. Flow was directed to the ion spray interface. All measurements were carried out in negative ESI mode. Ion spray voltage was -2500 V. Vaporizer and capillary temperatures were set at 250 and 350°C, respectively. Auto sampler temperature was set at 10°C. Sheath gas and aux gas were set at 30 and 15 Arb, respectively. […] Peak integrations and calibrations were carried out using LC Quan 2.5.2 software from Thermo Fisher Scientific.
(§5) The Q (accumulative quantity), Papp (apparent permeability), Er (efflux ratio), Pr (Papp ratio), and Err (Er ratio) across the excited rat intestinal segments in the Ussing chamber were calculated using the following equations ([Li et al., 2012]; [Huang et al., 2016]): […]
(§6) where Cn (nM) is the concentration of the drug at the time point (n), Q (nM) is the accumulated absorption amount, A is the exposed surface area of the intestine (0.49 cm^2), dQ/dt (nM⋅s^-1) is the amount of the drug transported, and C0 (nM) is the initial concentration of the test drug. Experiments were performed in batches, so control groups were set as one for each batch.

Data set [2] addresses T1, MRP3. As to the kind of experiment: Ussing chamber bidirectional transport, model validation for MRP3 (teniposide substrate, benzbromarone inhibitor). The format is in vitro ADME. The settings on record: rat.
Description: as §1
Digoxin, pravastatin, and teniposide were employed as the test substrates of P-gp, MRP2, and MRP3. […] The experiments were started after 30 min equilibration time, by changing the KRB buffer on both sides; 5 mL KRB solution with different test compounds was filled in the mucosal or serosal compartment; meanwhile, equal volume fresh buffer was added to the other compartment. […] The bidirectional transport studies with specific inhibitors were assessed to validate this model whether or not suitable for P-gp, MRP2, and MRP3 studies. Samples were stored at –80°C until analysis ([Deusser et al., 2013]).
as §3, §4, §5, §6

Data set [3] deals with Caco-2 cell. Set-up: method as in Yu et al. (2017). To be noted: Caco-2 cell culture model; ref Yu et al. (2017); cited from earlier work.
On the set-up of data set [4]: method as in Di et al. (2015). To be noted: ref Di et al. (2015); cited from earlier work.
Data set [5] deals with P-glycoprotein (P-gp). Set-up: method as in Teng et al., 2007, 2012; Liu et al., 2012. The settings on record: ref Teng et al., 2007, 2012, Liu et al.; cited from earlier work.
Data set [6] in a line: Absorption characteristics of emodin in rat intestinal segments (Ussing chamber).
Description: as §1
as §2, with “side. […]” for “side.”
(§7) The quantifications of the compounds were performed by the TSQ Quantum Ultra Triple Quadrupole LC-MS/MS system from Thermo Fisher Scientific. […]
as §5

In data set [7] the test system is P-gp. The experiment in a line: Emodin transport in jejunum in the presence of P-gp inhibitor verapamil (Ussing chamber). To be noted: rat jejunum, emodin 9.25 μM, verapamil 220 μM on mucosal side.
Description: as §1, with “Tissue viability was continuously controlled by potential difference (PD). Tissue with electrical values less than 2 mV was refused ([Moazed and Hiebert, 2007]; [Heinen et al., 2013]).” left out
(§8) In this study, the effects of the three efflux transporters on emodin intestinal absorption were investigated. […] Changes of the bidirectional transport characteristic were measured before and after adding emodin to the mucosal side. […]
as §7, §5

Data set [8] deals with MRP2 (Rattus norvegicus, UniProt Q63120). The experiment in a line: Emodin transport in jejunum in the presence of MRP2 inhibitor MK571 (Ussing chamber). To be noted: MK571 186 μM on mucosal side.
Description: as §1, with “Tissue viability was continuously controlled by potential difference (PD). Tissue with electrical values less than 2 mV was refused ([Moazed and Hiebert, 2007]; [Heinen et al., 2013]).” left out
as §8, §7, §5

Data set [9] addresses T1, MRP3. As to the kind of experiment: Emodin transport in jejunum in the presence of MRP3 inhibitor benzbromarone (Ussing chamber). The format is in vitro ADME.
Description: as §1, with “Tissue viability was continuously controlled by potential difference (PD). Tissue with electrical values less than 2 mV was refused ([Moazed and Hiebert, 2007]; [Heinen et al., 2013]).” left out
as §8, §7, §5

The subject of data set [10] is multidrug-resistant associated protein 2 (MRP2). On the set-up: method as in Teng et al., 2007, 2012; Liu et al., 2012. The settings on record: ref Teng et al., 2007, 2012, Liu et al.; cited from earlier work.
Data set [11] concerns P-gp. As to the kind of experiment: Influence of emodin on P-gp function: digoxin bidirectional transport in the presence of emodin (Ussing chamber). The settings on record: rat jejunum, emodin 185, 370, 740 μM, digoxin as substrate. The format is in vitro ADME.
Description: as §1, §2, §3, §4, §5, §6

T1 sequence (O88563 whole entry): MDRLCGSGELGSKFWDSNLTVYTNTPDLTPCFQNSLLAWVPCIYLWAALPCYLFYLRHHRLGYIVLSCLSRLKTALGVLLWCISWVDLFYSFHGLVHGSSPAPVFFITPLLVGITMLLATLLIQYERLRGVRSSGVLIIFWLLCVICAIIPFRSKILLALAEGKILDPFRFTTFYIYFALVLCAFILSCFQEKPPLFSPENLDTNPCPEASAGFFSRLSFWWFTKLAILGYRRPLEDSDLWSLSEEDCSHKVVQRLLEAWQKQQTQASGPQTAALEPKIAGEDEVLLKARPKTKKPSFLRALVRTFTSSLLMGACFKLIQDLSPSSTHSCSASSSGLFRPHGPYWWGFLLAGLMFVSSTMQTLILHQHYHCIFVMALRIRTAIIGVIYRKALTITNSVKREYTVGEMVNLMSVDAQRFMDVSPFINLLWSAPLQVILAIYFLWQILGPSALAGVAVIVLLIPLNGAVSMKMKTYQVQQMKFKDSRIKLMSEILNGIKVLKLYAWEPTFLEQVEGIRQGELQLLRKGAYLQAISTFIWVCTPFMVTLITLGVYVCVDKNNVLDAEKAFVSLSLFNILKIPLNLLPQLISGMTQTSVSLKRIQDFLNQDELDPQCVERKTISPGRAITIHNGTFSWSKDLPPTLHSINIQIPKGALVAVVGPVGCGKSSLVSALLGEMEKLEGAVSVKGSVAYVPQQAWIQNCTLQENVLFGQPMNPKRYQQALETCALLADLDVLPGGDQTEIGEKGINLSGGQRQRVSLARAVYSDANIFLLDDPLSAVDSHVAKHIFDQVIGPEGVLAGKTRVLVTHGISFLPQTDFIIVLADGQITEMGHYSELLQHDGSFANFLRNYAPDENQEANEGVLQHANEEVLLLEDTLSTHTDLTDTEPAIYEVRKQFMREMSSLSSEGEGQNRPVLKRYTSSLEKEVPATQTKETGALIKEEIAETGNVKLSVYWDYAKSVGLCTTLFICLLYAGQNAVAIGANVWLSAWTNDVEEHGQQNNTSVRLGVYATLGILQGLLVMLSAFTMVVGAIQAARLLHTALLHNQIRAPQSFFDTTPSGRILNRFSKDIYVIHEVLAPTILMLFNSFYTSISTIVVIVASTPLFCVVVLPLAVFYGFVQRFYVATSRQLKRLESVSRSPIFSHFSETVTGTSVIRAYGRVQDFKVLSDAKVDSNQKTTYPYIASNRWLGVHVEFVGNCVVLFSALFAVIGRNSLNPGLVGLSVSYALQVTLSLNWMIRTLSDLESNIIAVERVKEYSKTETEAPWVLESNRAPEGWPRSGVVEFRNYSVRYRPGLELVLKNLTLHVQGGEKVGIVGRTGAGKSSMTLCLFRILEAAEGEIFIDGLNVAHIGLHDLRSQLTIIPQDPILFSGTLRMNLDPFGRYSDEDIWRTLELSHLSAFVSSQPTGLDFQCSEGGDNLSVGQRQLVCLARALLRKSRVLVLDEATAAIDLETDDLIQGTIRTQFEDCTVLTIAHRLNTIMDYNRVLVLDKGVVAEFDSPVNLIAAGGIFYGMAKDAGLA
Sequence of MRP2 (Q63120 whole entry, the tested form may be a part): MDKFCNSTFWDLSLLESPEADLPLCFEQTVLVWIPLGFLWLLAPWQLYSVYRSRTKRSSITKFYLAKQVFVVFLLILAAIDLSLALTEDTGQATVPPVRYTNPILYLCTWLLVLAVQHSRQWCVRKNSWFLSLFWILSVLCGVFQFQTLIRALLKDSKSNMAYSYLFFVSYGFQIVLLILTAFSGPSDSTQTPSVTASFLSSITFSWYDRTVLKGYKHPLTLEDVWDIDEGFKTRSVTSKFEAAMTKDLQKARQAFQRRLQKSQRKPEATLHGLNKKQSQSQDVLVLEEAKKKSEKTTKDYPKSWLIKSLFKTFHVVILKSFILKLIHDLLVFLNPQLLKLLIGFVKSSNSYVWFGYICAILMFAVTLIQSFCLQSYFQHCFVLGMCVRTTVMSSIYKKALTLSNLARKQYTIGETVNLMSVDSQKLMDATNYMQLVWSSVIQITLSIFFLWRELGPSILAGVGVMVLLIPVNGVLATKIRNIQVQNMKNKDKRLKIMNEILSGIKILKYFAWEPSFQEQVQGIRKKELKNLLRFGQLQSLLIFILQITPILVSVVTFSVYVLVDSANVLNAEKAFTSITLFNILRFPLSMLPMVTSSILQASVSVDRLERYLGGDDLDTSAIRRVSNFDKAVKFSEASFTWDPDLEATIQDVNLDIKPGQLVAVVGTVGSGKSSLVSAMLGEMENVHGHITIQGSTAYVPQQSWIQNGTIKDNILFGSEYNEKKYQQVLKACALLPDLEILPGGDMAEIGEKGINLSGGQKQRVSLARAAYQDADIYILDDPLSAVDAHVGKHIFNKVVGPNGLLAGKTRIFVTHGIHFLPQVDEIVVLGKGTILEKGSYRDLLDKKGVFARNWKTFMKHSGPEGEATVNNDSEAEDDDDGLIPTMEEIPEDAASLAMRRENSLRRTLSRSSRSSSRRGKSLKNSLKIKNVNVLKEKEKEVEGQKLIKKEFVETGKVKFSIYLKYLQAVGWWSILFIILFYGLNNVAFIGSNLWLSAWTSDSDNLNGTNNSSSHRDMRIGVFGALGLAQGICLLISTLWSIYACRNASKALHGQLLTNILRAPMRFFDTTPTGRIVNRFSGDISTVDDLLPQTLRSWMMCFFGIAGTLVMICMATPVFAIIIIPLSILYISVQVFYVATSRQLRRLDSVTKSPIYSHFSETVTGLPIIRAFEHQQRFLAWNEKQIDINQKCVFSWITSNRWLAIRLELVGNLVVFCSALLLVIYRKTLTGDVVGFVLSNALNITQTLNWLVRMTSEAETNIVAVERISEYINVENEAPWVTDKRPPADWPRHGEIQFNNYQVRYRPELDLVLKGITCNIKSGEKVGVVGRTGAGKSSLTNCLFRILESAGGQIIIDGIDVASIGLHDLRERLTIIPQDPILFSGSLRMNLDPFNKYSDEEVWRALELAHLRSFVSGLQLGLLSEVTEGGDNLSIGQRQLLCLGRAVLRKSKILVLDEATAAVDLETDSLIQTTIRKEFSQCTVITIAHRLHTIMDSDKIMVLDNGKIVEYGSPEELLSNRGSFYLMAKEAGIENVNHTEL

With `COc1cc([C@@H]2c3cc4c(cc3[C@@H](O[C@@H]3O[C@@H]5CO[C@@H](c6cccs6)O[C@H]5[C@H](O)[C@H]3O)[C@H]3COC(=O)[C@H]23)OCO4)cc(OC)c1O` [Teniposide], the “Change of Papp from S-M and Er of teniposide in the presence of emodin” value in [1] (teniposide 60 μM, emodin 185, 370, 740 μM) is “remarkably decreased”. Besides, the Papp (commonly the rate of passage across a membrane or cell layer, normalised by area and donor concentration) at 60 μM in [1] (pH 6.5, teniposide 60 μM, without emodin, read-out: Papp M-S, control) was 69.4 ± 17.5 ×10⁻⁶ cm/s; in data set [1] (pH 6.5, teniposide 60 μM, without emodin, read-out: Papp S-M, control), 81.8 ± 15.9 ×10⁻⁶ cm/s; in data set [1] (pH 6.5, with emodin 185 μM on mucosal side, teniposide 60 μM, emodin 185 μM on mucosal side, read-out: Papp M-S in the presence of emodin), 63.2 ± 5.9 ×10⁻⁶ cm/s; in data set [1] (pH 6.5, with emodin 185 μM on mucosal side, teniposide 60 μM, emodin 185 μM on mucosal side, read-out: Papp S-M in the presence of emodin), 56.1 ± 5.7 ×10⁻⁶ cm/s; in data set [1] (pH 6.5, with emodin 370 μM on mucosal side, teniposide 60 μM, emodin 370 μM on mucosal side, read-out: Papp M-S in the presence of emodin) it was 52.5 ± 7.3 ×10⁻⁶ cm/s; in [1] (pH 6.5, with emodin 370 μM on mucosal side, teniposide 60 μM, emodin 370 μM on mucosal side, read-out: Papp S-M in the presence of emodin) it was 31.2 ± 13.2 ×10⁻⁶ cm/s. Further, the Papp at 60 μM was found to be 91.1 ± 27.3 ×10⁻⁶ cm/s in [1] (pH 6.5, with emodin 740 μM on mucosal side, teniposide 60 μM, emodin 740 μM on mucosal side, read-out: Papp M-S in the presence of emodin) and 41.1 ± 6.2 ×10⁻⁶ cm/s in data set [1] (pH 6.5, with emodin 740 μM on mucosal side, teniposide 60 μM, emodin 740 μM on mucosal side, read-out: Papp S-M in the presence of emodin). Further, the Papp is 16 ± 11.1 ×10⁻⁶ cm/s in data set [2] (pH 6.5, rat colon, without inhibitor, read-out: Papp M-S, control); 21.3 ± 11.9 ×10⁻⁶ cm/s in data set [2] (pH 6.5, rat colon, without inhibitor, read-out: Papp S-M, control); 12.6 ± 7.7 ×10⁻⁶ cm/s in data set [2] (pH 6.5, rat ileum, without inhibitor, read-out: Papp M-S, control); 24.5 ± 10 ×10⁻⁶ cm/s in data set [2] (pH 6.5, rat ileum, without inhibitor, read-out: Papp S-M, control); 14 ± 4.4 ×10⁻⁶ cm/s in [2] (pH 6.5, rat jejunum, without inhibitor, read-out: Papp M-S, control); 33.5 ± 14 ×10⁻⁶ cm/s in data set [2] (pH 6.5, rat jejunum, without inhibitor, read-out: Papp S-M, control). In addition, the Papp in data set [2] (pH 6.5, with benzbromarone 470 μM, mucosal side, rat colon, with benzbromarone 470 μM on mucosal side, read-out: Papp M-S, with inhibitor) turned out to be 28.3 ± 8.4 ×10⁻⁶ cm/s; in data set [2] (pH 6.5, with benzbromarone 470 μM, mucosal side, rat colon, with benzbromarone 470 μM on mucosal side, read-out: Papp S-M, with inhibitor), 8.3 ± 1.9 ×10⁻⁶ cm/s; in data set [2] (pH 6.5, with benzbromarone 470 μM, mucosal side, rat ileum, with benzbromarone 470 μM on mucosal side, read-out: Papp M-S, with inhibitor), 28 ± 19.5 ×10⁻⁶ cm/s; in data set [2] (pH 6.5, with benzbromarone 470 μM, mucosal side, rat ileum, with benzbromarone 470 μM on mucosal side, read-out: Papp S-M, with inhibitor) it was 10.3 ± 2.9 ×10⁻⁶ cm/s; in [2] (pH 6.5, with benzbromarone 470 μM, mucosal side, rat jejunum, with benzbromarone 470 μM on mucosal side, read-out: Papp M-S, with inhibitor), 37.2 ± 9.7 ×10⁻⁶ cm/s; in [2] (pH 6.5, with benzbromarone 470 μM, mucosal side, rat jejunum, with benzbromarone 470 μM on mucosal side, read-out: Papp S-M, with inhibitor), 13.1 ± 6.4 ×10⁻⁶ cm/s.
Consider `OC[C@H]1O[C@@H](Oc2c(O)cc(O)cc2C=Cc2ccc(O)cc2)[C@H](O)[C@@H](O)[C@@H]1O` [2,3,5,4’-tetrahydroxystilbene-2-β-D-glucoside], for which the “Effect on emodin absorption” value in data set [3] was “could enhance”.
With `O=C(/C=C/C=C/c1ccc2c(c1)OCO2)N1CCCCC1` [piperine], in data set [4], the “Effect on glucuronidation metabolism of emodin” value is on record as “inhibited” and the “Effect on in vivo bioavailability of emodin” value is given as “significantly improved”.
Regarding `Cc1cc(O)c2c(c1)C(=O)c1cc(O)cc(O)c1C2=O` [Emodin, 1,3,8trihydroxy-6-methylanthraquinone], the “Substrate of P-gp” value in data set [5] is “substrate”. In addition, the “Regioselectivity of intestinal absorption rates” value in data set [6] (duodenum, jejunum, ileum, colon, 9.25, 18.5 and 37 μM) is “no regioselectivity”. Moreover, in data set [6] (rat intestinal segments, lowest concentration (9.25 μM)), the “Papp values from M-S” value is reported as “very low”. Further, in data set [6] (rat jejunum, at all three concentrations 9.25, 18.5 and 37 μM), the “Er (efflux ratio) of emodin” value was “more than five”. In data set [7], the “Change of emodin absorption (M-S) with verapamil” value is “markedly increase” and the “Change of emodin efflux ratio with verapamil” value was “decrease”. Moreover, in data set [8], the “Change of emodin Papp from mucosal to serosal side with MK571” value is “significantly increased” and the “Change of emodin efflux ratio with MK571” value is “decreased”. Moreover, the “Effect of emodin on MRP3 function” value in data set [1] (emodin 185, 370, 740 μM, teniposide as substrate) was “might be an MRP3 inhibitor”. Besides, the “Substrate of MRP3” value in data set [9] (Ussing chamber) was “might not be a substrate”. For the same molecule, the “Change of emodin transport with benzbromarone” value in data set [9] (benzbromarone 470 μM on mucosal side) was “no significant differences”. For the same molecule, the “Substrate of MRP2” value in data set [10] was “substrate”. In addition, the “Effect of emodin on P-gp function” value in [11] was “could enhance P-gp function”.
